Earlier results on one compound are cited in US20170216217A1, “SPHERICAL MICROCAPSULES WITH ENHANCED ORAL BIOAVAILABILITY” (I2O Pharma Ltd., priority 2016, published 2017).

On to `CN1CCN(C2=Nc3cc(Cl)ccc3Nc3ccccc32)CC1` [Clozapine], for which the Oral bioavailability is 27%.
